Assay: in vivo
Settings: Sprague Dawley, rat; for AUC(0-t) / Cmax / Tmax: im
Experimental: An in vivo pharmacology study was completed in Sprague Dawley rats over 14 days, to determine the drug release kinetics of 50, 100, or 200 mg/kg doses of niclosamide administered as intramuscular injections of an aqueous dispersion of niclosamide nanoparticles.
Each animal received two 0.2 mL injections, one in each thigh, of one of the 25, 50, or 100 mg/kg of niclosamide dispersions for a total dose of 50, 100, or 200 mg/kg of niclosamide in each animal.
Blood samples were taken via tail vein bleed 1, 3, 6 and 24 hours post dose followed by bleeds at day 3, 4, 7 and 14. Niclosamide concentrations from the plasma samples were quantified utilising a previously validated liquid chromatography mass spectrometry (LCMS) method.

O=C(Nc1ccc([N+](=O)[O-])cc1Cl)c1cc(Cl)ccc1O [niclosamide, 5-chloro-N-(2-chloro-4-nitrophenyl)-2-hydroxybenzamide]
concentration at 24 h: 140000 ng/g
AUC(0-t) (50 mg/kg): 24800 ng·h/mL
Cmax (50 mg/kg): 1410 ng/mL
Tmax (50 mg/kg): 2.5 h
AUC(0-t) (100 mg/kg): 47500 ng·h/mL
Cmax (100 mg/kg): 2040 ng/mL
Tmax (100 mg/kg): 2 h
AUC(0-t) (200 mg/kg): 58300 ng·h/mL
Cmax (200 mg/kg): 3130 ng/mL
Tmax (200 mg/kg): 3 h

— patent US20230404981A1, “[…] ACTIVE COMPOUND FORMULATIONS” (priority 2020, published 2023)
